≈ marks a conversion by molar mass, not a printed value.

Here are results for one compound from patent publication US5202331A, “Therapeutic agent for dysuria comprising alpha-phenyl-alpha-pyridylalkanoic acid derivatives” (Fujisawa Pharmaceutical Co., Ltd., priority 1990, dated 1993).

For data set [1], the system named is urinary bladder contraction (hyperactive bladder, detrusor hyperreflexia). As to the kind of experiment: Inhibition of urinary bladder contraction in the pressure-loaded hyperactive bladder model in rats. In kind it is in vivo. To be noted: Rattus norvegicus, intravenous, urethane-anesthetized male S.D. rats, hydrostatic pressure about 10 mmHg. On the procedure:
Male S.D. rats weighing 240-450 g were anesthetized with urethane (1.0 g/kg) s.c.. The urinary bladder was then exposed through a midline incision in the abdomen and the intravesical pressure was recorded. Thus, a balloon attached to one end of a stainless steel tube (1.2 mm in outer diameter, 5 cm in length) was inserted into the bladder through a small incision made in the bladder dome, while the other end of the tube was connected to a pressure transducer. The ureter was ligated and cut and a polyethylene cannula was inserted from the proximal cut end to drain off the urine.
Hyperactive bladder (detrusor hyperreflexia) was induced by water filling of the bladder. A hydrostatic pressure of about 10 mmHg was applied to the balloon in the bladder.
When the contractile response of the bladder to water pressure loading became steady, the test compound was administered intravenously.

In data set [2] the test system is voiding reflex bladder contraction. The data set can be described thus: Effect on voiding reflex bladder contraction in rats with the ureter ligated. In kind it is in vivo. To be noted: Rattus norvegicus, iv, voiding reflex rhythmic bladder contraction, into the jugular vein, urethane-anesthetized male S.D rats. From the text:
A midline incision was made in the abdomen of male S.D rats (body weight 250-350 g) under urethane (1.0 g/kg i.p.) anesthesia. A small incision was made in the bladder dome and one end of a polyethylene tube was inserted and, then, ligated. To the other end of the polyethylene tube was attached a three-way cock. An infusion pump was connected to one of the joints and a transducer was connected to another joint for measurement of the intravesical pressure. Physiological saline was then infused continuously into the bladder. After confirmation of steady voiding reflexes, the ureter was ligated immediately before the next voiding and the infusion of physiological saline was stopped. After the resulting rhythmic contractions became stable, the test compound was administered into the jugular vein to evaluate its effect.

Data set [3] relates to isolated guinea pig bladder detrusor muscle. As to the kind of experiment: Anticholinergic effect in the isolated guinea pig bladder (carbamylcholine-induced contraction). Details: species or system male guinea pigs. To be noted: Cavia porcellus, contractions induced with 10 μM carbamylcholine, Krebs solution. On the procedure:
Male guinea pigs weighing 400-700 g were fainted and killed by a blow on the occipital region. A bladder detrusor muscle specimen (15-20 mm long × 5 mm thick) was prepared by longitudinal section and suspended in a Magnus bath containing Krebs solution which was aerated with 95% O2 -5% CO2. Isotonic contractions were recorded through a tension transducer. The buffer solution was changed five times at 15-minute intervals. The equilibration time was […]. Contractions were induced with 10 μM carbamylcholine, and after the contractions became steady, the test compound was added to the Magnus bath and its anticholinergic effect was investigated.

Another data set in a line: Acute toxicity test. Details: species or system rats (Crj:CD(SD) strain). The note with it: rat, in vivo, 14 days observation, probit method. On the procedure: Five rats (Crj:CD(SD) strain) of either sex were used per group. Solutions of the test compound were prepared as shown below and administered to rats intravenously or subcutaneously. The rats were then observed for 14 days. The LD50 values were calculated by the probit method. (Preparation of test solutions)
The test compound was dissolved in hydrochloric acid and the solution was adjusted to pH 6-7 with sodium hydrogen carbonate and diluted with physiological saline to the required concentrations.

With `C[C@H](C[C@@](C(N)=O)(c1ccccc1)c1ccccn1)N(C)C` (relative stereo) [test compound, (±)-(2R*,4R*)-4-Dimethylamino-2-phenyl-2-(2-pyridyl)-valeramide], the ED30 in data set [1] turned out to be 0.09 mg/kg. For the same compound, the ED50 in data set [2] turned out to be 0.56 mg/kg. The IC50 in data set [3] amounted to 0.6 µg/mL (≈ 2.02 µM). Besides, the LD50 at 336 h in “Acute toxicity test” (iv, Female) turned out to be 42.3 mg/kg; in “Acute toxicity test” (iv, Male), 47.2 mg/kg; in the data set “Acute toxicity test” (sc, Female) it was 915 mg/kg; in “Acute toxicity test” (sc, Male), 922 mg/kg.
